Test results taken from patent publication US20170307610A1, “COMPOUNDS THAT BIND DYSTROGLYCAN AND USES THEREOF” (OREGON HEALTH & SCIENCE UNIVERSITY, priority 2014, published 2017).
Peptide text beside a SMILES is read from it. * marks the point of attachment. Cbz = O=C(OCc1ccccc1)*

Tests used:
Assay type in all cases: cell-based, mouse
[1] = tested on: E3D1 MECs; experiment: Pulsed time course of Rhod-Ln internalization, flow cytometry; conditions: pulsed, 24 hrs post laminin labeling, n=4; for MFI of internal Rhod-Ln in presence of inhibitor: vehicle 105.5±3
Protocol: (§1) To explore the dynamics of laminin internalization, steady-state time course experiments (measuring internalization in the continuous presence of labeled laminin) and pulsed time course experiments were performed. In pulsed time course experiments, the cells were exposed to exogenous Rhod-Ln at 4° C. to prevent internalization, excess unbound Rhod-Ln was washed away, and then cells were returned to 37° C. to allow synchronized internalization and trafficking to proceed. […] Following pulsed and synchronized laminin exposure, Rhod-Ln was again observed to internalize within 1 hour, but reached a maximum at 8 hours, after which the levels of internal laminin declined (FIG. 4A). After 24 hours, internal Rhod-Ln levels declined to ˜37% of the maxima, indicating degradation (MFI: 315±3.5 to 119±11.5). To determine if laminin was degraded using classical degradation pathways, pulsed time course experiments in the presence of leupeptin (lysosome inhibitor) or […] (proteasome inhibitor) were performed.
Laminin labeling—Laminin-111 (1 mg) (Sigma-Aldrich Corp., St. Louis, Mo., USA) was dialyzed twice overnight against 500 ml of PBS with 10 μM CaCl2. The dialyzed laminin was then reacted with 10 μg NHS-rhodamine, or a 50 fold molar excess of NHS409 CypHer5 (GE) for 2 hr on ice, followed by dialysis twice overnight against 500 ml of PBS with 10 μM CaCl2.
Flow Cytometry—Cells were plated in 12 well plates at 200,000 cells/well. The following day, media was changed to serum-free media with or without 10 μg/ml rhodamine laminin or 40 μg/ml FITC-dextran (500S-Sigma-Aldrich Corp., St. Louis, Mo., USA). Unless otherwise indicated, cells were incubated 18-24 hrs, washed once with PBS, and cells trypsinized. Cells were washed in 5 ml cold PBS/1 mM EDTA, pelleted, and resuspended in 1 ml PBS/1 mM EDTA. Using a BD FACScan flow cytometer (BD Biosciences, San Jose, Calif., USA), 10,000 cells/well were counted, background fluorescence from the cell counts with no added laminin subtracted and the mean fluorescence intensity values reported. Graphed data are compiled from duplicate wells from each experiment with a minimum of three separate experiments, unless indicated otherwise.

[2] = tested on: E3D1 MECs; experiment: Steady-state laminin internalization, flow cytometry; conditions: 18 hrs; for MFI of steady-state laminin endocytosis in presence of MMP inhibitor: GM6001 50 μM (vehicle 20.2±1.82, n=4), BB2416 5 μM (vehicle 20.85, n=2); for effect of MMP inhibitor on steady-state laminin endocytosis: GM6001 50 μM, BB2416 5 μM
Protocol: Endocytic internalization of laminin was confirmed by multiple methods. Laminin was labeled with the pH-sensitive fluorescent label CypHer-5 (CyPher-Ln) to exclusively image internalized laminin in attached, living cells. The fluorophore CypHer-5 is non fluorescent at pH 7.4 and maximally fluorescent at pH 5.5, permitting fluorescence detection of laminin within intracellular acidic vesicles (pH 4.8-6.0). Following overnight incubation of MECs with CypHer-Ln, live cell imaging detected bright fluorescent vesicles moving rapidly within the cytoplasm (FIG. 3A). Intracellular laminin within the cytoplasm was also independently observed via removal of surface bound laminin followed by confocal imaging. MECs were exposed to 10 μg/ml Rhod-Ln for 18 hrs, trypsinized, washed with PBS/EDTA to remove surface-bound laminin, allowed to re-attach, and stained with the membrane marker FITC-concanavalin A (conA). […] This method of cell treatment permitted a quantitative, flow cytometry-based assay of laminin internalization. In this assay, cells incubated with Rhod-Ln were trypsinized, washed (as in FIG. 3B), and the remaining internal Rhod-Ln fluorescence quantified by flow cytometry. Using this assay, laminin internalization was confirmed in diverse cell types including in primary mammary epithelial cultures, mammary epithelial cell lines (E3D1, MEpG), […] fibroblasts (NIH 3T3 cells), primary astrocytes, and human cancer cell lines (breast and glioma).
as §1
Laminin internalization could be mediated by either receptor-dependent or receptor independent mechanisms (e.g. pinocytosis). Steady-state laminin internalization was measured using flow cytometry in the presence of potential inhibitors and compared to internalization of 500S FITC-dextran, a molecule of similar molecular size to laminin known to be endocytosed by receptor-independent mechanisms. The specific inhibitor of dynamin, dynasore (Macia E et al, Dev Cell, 839-850 (2006); incorporated by reference herein), inhibited internalization of laminin by >75% (FIG. 6A). Under hypertonic sucrose, a condition known to inhibit receptor-mediated endocytosis (Heuser J E and Anderson R G, J Cell Biol 108, 389-400 (1989); incorporated by reference herein) laminin internalization was reduced by 65% (FIG. 6A). Addition of heparin, a molecule known to bind the laminin LG4-5 domain (Harrison D et al, J Biol Chem 282, 11573-11581 (2007); incorporated by reference herein), decreased laminin internalization by 69% relative to controls (FIG. 6A). […] Specifically, under steady state, laminin internalization was nearly linear throughout the 24 hour time course, whereas dextran internalization plateaued after 16 hrs.
Flow Cytometry—Cells were plated in 12 well plates at 200,000 cells/well. The following day, media was changed to serum-free media with or without 10 μg/ml rhodamine laminin or 40 μg/ml FITC-dextran (500S-Sigma-Aldrich Corp., St. Louis, Mo., USA). […]

[3] = tested on: E3D1 MECs; experiment: FITC-dextran (500S) internalization, flow cytometry; conditions: steady state, 24 hour time course
Protocol: Laminin internalization could be mediated by either receptor-dependent or receptor independent mechanisms (e.g. pinocytosis). Steady-state laminin internalization was measured using flow cytometry in the presence of potential inhibitors and compared to internalization of 500S FITC-dextran, a molecule of similar molecular size to laminin known to be endocytosed by receptor-independent mechanisms. The specific inhibitor of dynamin, dynasore (Macia E et al, Dev Cell, 839-850 (2006); incorporated by reference herein), inhibited internalization of laminin by >75% (FIG. 6A). Under hypertonic sucrose, a condition known to inhibit receptor-mediated endocytosis (Heuser J E and Anderson R G, J Cell Biol 108, 389-400 (1989); incorporated by reference herein) laminin internalization was reduced by 65% (FIG. 6A). Addition of heparin, a molecule known to bind the laminin LG4-5 domain (Harrison D et al, J Biol Chem 282, 11573-11581 (2007); incorporated by reference herein), decreased laminin internalization by 69% relative to controls (FIG. 6A). […]
Flow Cytometry—Cells were plated in 12 well plates at 200,000 cells/well. […] Using a BD FACScan flow cytometer (BD Biosciences, San Jose, Calif., USA), 10,000 cells/well were counted, background fluorescence from the cell counts with no added laminin subtracted and the mean fluorescence intensity values reported. […]

[4] = Mus musculus, steady-state, 10 μg/ml Rhod-Ln, 40 μM dynasore, 320 mM sucrose, 100 μg/ml heparin

Question: `CC(C)C[C@@H](C=O)NC(=O)[C@H](CC(C)C)NC(=O)[C@H](CC(C)C)NC(=O)OCc1ccccc1` [MG-231] (Cbz-Leu-Leu-Leu-aldehyde) was tested. Which “increase in internal Rhod-Ln compared to vehicle controls” value [1] did it give?
Answer: 59%

Question: And the “MFI of internal Rhod-Ln in presence of inhibitor” value [1]?
Answer: 167.5±7

Question: `CNC(=O)[C@H](Cc1c[nH]c2ccccc12)NC(=O)[C@@H](CC(=O)NO)CC(C)C` [GM6001] was tested. Which “MFI of steady-state laminin endocytosis in presence of MMP inhibitor” value [2] did it give?
Answer: 18.62±1

Question: And the “effect of MMP inhibitor on steady-state laminin endocytosis” value [2]?
Answer: no significant effect

Question: For FITC-dextran, which “time to plateau of dextran internalization” value [3] is on record?
Answer: > 16 h

Question: How did the “increase in internal Rhod-Ln compared to vehicle controls” value [1] turn out when `CC(=O)N[C@@H](CC(C)C)C(=O)N[C@@H](CC(C)C)C(=O)N[C@H](C=O)CCCNC(=N)N` [leupeptin] was run?
Answer: 153%

Question: What about the “MFI of internal Rhod-Ln in presence of inhibitor” value [1] of the same compound?
Answer: 266±11.2

Question: For `CNC(=O)[C@@H](NC(=O)[C@H](CC(C)C)[C@H](O)C(=O)NO)C(C)(C)C` [BB2416], which “MFI of steady-state laminin endocytosis in presence of MMP inhibitor” value [2] is on record?
Answer: 20.46

Question: What about the “effect of MMP inhibitor on steady-state laminin endocytosis” value [2] of the same compound?
Answer: no significant effect

Question: Which “inhibition of laminin internalization” value ([2]; steady-state, 10 μg/ml Rhod-Ln, 40 μM dynasore, 320 mM sucrose, 100 μg/ml heparin) does the source give for heparin here?
Answer: 69%

Question: `OC[C@H]1O[C@@](CO)(O[C@H]2O[C@H](CO)[C@@H](O)[C@H](O)[C@H]2O)[C@@H](O)[C@@H]1O` [sucrose] was tested. Which inhibition at 320000 µM [2, 4] did it give?
Answer: 65%

Question: `O=C(N/N=C/c1ccc(O)c(O)c1)c1cc2ccccc2cc1O` [dynasore] was tested. Which inhibition at 40 µM [2, 4] did it give?
Answer: > 75%
